Data from patent publication US6075009A, “Neuropeptide Y analogues, compositions and methods of lowering blood pressure” (East Carolina University, priority 1995, dated 2000).
Square brackets hold non-standard residues; d marks the D form. Ends that are not written are not given here.

Test system: mean arterial pressure and heart rate
Assay: In vivo blood pressure and heart rate after intravenous dosing in normotensive rats
Parameters: species or system Sprague-Dawley rats
Protocol: Male Sprague-Dawley rats obtained from Charles River Laboratories, Wilmington, Mass., and weighing 276-300 g, were group housed at 22° C. and kept on 12 hour light/dark cycle. Food and water were provided ad lib. Animals were anesthetized with sodium pentobarbital (65 mg/kg) and under sterile conditions a one-inch incision was made in the fold of the left leg to expose the femoral blood vessels. Two lengths of PE-50 tubing filled with 10% heparin were inserted into the left femoral artery and left femoral vein for measurement of blood pressure and for drug delivery, respectively. The tubings were tunneled under the skin and exposed through the mid-scapular region. Animals were allowed at least 24 hours recovery prior to experiments. A force transducer (Spectramed Model P23XL, Grass Instruments, Quincy, Mass., USA), and tachograph (Model 7P44D, Grass Instruments) was used for recording of systolic and diastolic pressures and heart rate from the femoral artery catheter. Patency of catheters was verified by flushing with either saline or 10% heparin. A dose of either 30, 100, 500, 800 or 1000 nM/kg ([…]) of NPY27-36 (D-Tyr^27,36, D-Thr^32) (prepared as described in Example 1 above), or saline was delivered to the animal via the catheter in the left femoral vein. Changes in systolic and diastolic pressures and heart rater were recorded from the catheter in the left femoral artery over a 10 minute time interval.

[1] = i.v., 30-1000 nM/kg, normotensive Sprague-Dawley rats, recorded over 10 min

In the case of “D-Tyr-Ile-Asn-Leu-Ile-D-Thr-Arg-Gln-Arg-D-Tyr-NH2 ([dY]INLI[dT]RQR[dY]-NH2; N-terminus assumed; SMILES CC[C@H](C)[C@H](NC(=O)[C@H](N)Cc1ccc(O)cc1)C(=O)N[C@@H](CC(N)=O)C(=O)N[C@@H](CC(C)C)C(=O)N[C@H](C(=O)N[C@@H](C(=O)N[C@@H](CCCNC(=N)N)C(=O)N[C@@H](CCC(N)=O)C(=O)N[C@@H](CCCNC(=N)N)C(=O)N[C@H](Cc1ccc(O)cc1)C(N)=O)[C@H](C)O)[C@@H](C)CC) [NPY27-36 (D-Tyr^27,36, D-Thr^32)]”, the “changes in pressure and heart rate vs saline treatment” value (i.v. doses of 30 and 100 nM/kg) is reported as “failed to produce changes that were significantly different from saline treatment”, the “mean arterial pressure vs saline-treated controls” value (i.v. doses of 500, 800 and 1000 nM/kg) is reported as “significantly different decreases in mean arterial pressure” and the “heart rate vs saline controls” value (i.v. doses of 500 and 1000 nM/kg) is reported as “significantly different increases in heart rate”. The “heart rate, dose-response” value [1] was “increase in heart rate” and the “mean arterial pressure, dose-response” value [1] was “dose-dependent decrease in mean arterial pressure”.
